Results from US7345070B2, “Peroxisome proliferator activated receptor agonists” (Eli Lilly and Company, priority 2000, dated 2008).

Target: T1, huPPARγ (Homo sapiens, UniProt P37231)
T1 sequence (P37231 1-505): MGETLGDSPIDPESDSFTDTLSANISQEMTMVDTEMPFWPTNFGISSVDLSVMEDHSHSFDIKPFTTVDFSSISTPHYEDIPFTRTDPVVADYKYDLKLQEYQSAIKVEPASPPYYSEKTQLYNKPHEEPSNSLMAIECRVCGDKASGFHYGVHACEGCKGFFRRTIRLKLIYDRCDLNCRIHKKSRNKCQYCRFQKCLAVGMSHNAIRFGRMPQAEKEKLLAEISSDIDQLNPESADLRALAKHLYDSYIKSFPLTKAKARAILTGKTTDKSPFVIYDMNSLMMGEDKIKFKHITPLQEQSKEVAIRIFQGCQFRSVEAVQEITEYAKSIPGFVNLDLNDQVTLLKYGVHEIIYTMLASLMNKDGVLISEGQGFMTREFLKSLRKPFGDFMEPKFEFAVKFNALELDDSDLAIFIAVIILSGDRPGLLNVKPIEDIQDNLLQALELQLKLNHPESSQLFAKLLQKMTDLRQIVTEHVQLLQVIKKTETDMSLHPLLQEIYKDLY
T1 sequence (P19793 1-462 partner): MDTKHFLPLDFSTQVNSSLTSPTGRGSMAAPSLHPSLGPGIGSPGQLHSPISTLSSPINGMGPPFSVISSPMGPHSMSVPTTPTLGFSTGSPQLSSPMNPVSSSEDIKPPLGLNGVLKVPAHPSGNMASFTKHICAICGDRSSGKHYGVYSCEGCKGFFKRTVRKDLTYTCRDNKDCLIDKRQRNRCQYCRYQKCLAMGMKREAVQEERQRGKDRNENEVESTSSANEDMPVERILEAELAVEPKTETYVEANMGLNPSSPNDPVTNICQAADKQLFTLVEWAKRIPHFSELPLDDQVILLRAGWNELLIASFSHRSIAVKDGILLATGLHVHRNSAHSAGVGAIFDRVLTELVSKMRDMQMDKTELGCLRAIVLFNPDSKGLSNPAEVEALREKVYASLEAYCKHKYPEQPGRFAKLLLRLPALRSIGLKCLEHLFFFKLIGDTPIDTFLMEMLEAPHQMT
Experiment: Cotransfection assay in CV-1 cells, huPPARγ
Assay type: cell-based
Parameters: Appropriate PPARs and RXRα were constitutively expressed using plasmids containing the CMV promoter; expressed in transfected cells; host or cells: CV-1 cells
Conditions: AOX PPRE luciferase reporter, relative to PPARγ agonist reference molecule, read-out: huPPARγ CTF Efficacy
Protocol: DNA-dependent binding (ABCD binding) was carried out using SPA technology with PPAR receptors. Tritium-labeled PPARα and PPARγ agonists were used as radioligands for generating displacement curves and IC50 values with compounds of the invention. Cotransfection assays were carried out in CV-1 cells. The reporter plasmid contained an acylCoA oxidase (AOX) PPRE and TK promoter upstream of the luciferase reporter cDNA. Appropriate PPARs and RXRα were constitutively expressed using plasmids containing the CMV promoter. […] In order to eliminate such interference, a GAL4 chimeric system was used in which the DNA binding domain of the transfected PPAR was replaced by that of GAL4, and the GAL4 response element was utilized in place of the AOX PPRE. Cotransfection efficacy was determined relative to PPARα agonist and PPARγ agonist reference molecules. Efficacies were determined by computer fit to a concentration-response curve, or in some cases at a single high concentration of agonist (10 μM). For binding or cotransfection studies with receptors other than PPARs, similar assays were carried out using appropriate ligands, receptors, reporter constructs, etc., for that particular receptor.
These studies were carried out to evaluate the ability of compounds of the invention to bind to and/or activate various nuclear transcription factors, particularly huPPARα (“hu” indicates “human”) and huPPARγ. These studies provide in vitro data concerning efficacy and selectivity of compounds of the invention. Furthermore, binding and cotransfection data for compounds of the invention were compared with corresponding data for marketed compounds that act on either huPPARα or huPPARγ.

Row | Compound | Emax [%]
1 | COc1cccc(OC(C)(Cc2ccc(OCCc3nc(C4CCCCC4)oc3C)cc2)C(=O)O)c1 (centres unmarked) [Example 76, 3-{4-[2-(2-Cyclohexyl-5-methyl-oxazol-4-yl)-ethoxy]-phenyl}-2-(3-methoxy-phenoxy)-2-methyl-propionic acid] | 24
2 | Cc1oc(C2CCCCC2)nc1CCOc1ccc(CC(C)(Oc2ccc3c(c2)OCO3)C(=O)O)cc1 (centres unmarked) [Example 80, 2-(Benzo[1,3]dioxol-5-yloxy)-3-{4-[2-(2-cyclohexyl-5-methyl-oxazol-4-yl)-ethoxy]-phenyl}-2-methyl-propionic acid] | 30
3 | Cc1oc(-c2ccccc2)nc1CCCc1ccc(CC(C)(Oc2ccccc2)C(=O)O)s1 (centres unmarked) [Example 91, 2-Methyl-3-{5-[3-(5-methyl-2-phenyl-oxazol-4-yl)-propyl]-thiophen-2-yl}-2-phenoxy-propionic acid] | 62

Further lines, results first:

Row | Emax [%] | Compound
4 | 17 | Cc1oc(-c2ccccc2)nc1CCOc1ccc(CC(C)(Oc2ccc3c(c2)OCO3)C(=O)O)cc1 (centres unmarked) [Example 78, 2-(Benzo[1,3]dioxol-5-yloxy)-2-methyl-3-{4-[2-(5-methyl-2-phenyl-oxazol-4-yl)-ethoxy]-phenyl}-propionic acid]
5 | 7 | Cc1oc(CCc2ccccc2)nc1CCOc1ccc(C[C@](C)(Oc2ccccc2)C(=O)O)cc1 [Example 86, (S)-2-Methyl-3-{4-[2-(5-methyl-2-phenethyl-oxazol-4-yl)-ethoxy]-phenyl}-2-phenoxy-propionic acid]
